In patent US20090042962A1, “Therapeutic Agent for Keratoconjunctival Disorder” (SANTEN PHARMACEUTICAL CO., LTD., priority 2005, published 2009):

Test system: corneal disorder models
Assay: Test for therapeutic effect on corneal damage (exorbital lacrimal gland removal, fluorescein staining score)
Assay type: in vivo, male SD rats
Settings: for Improvement ratio (%): instilled 6 times a day for 14 days; for Mean value of scores: instilled into both eyes 6 times a day for 14 days, fluorescein staining total score
Description: Using male SD rats, corneal disorder models were produced in accordance with the method of Fujihara et al. (Invest. Opthalmol. Vis. Sci. 42 (1): 96-100 (2001)) After the production of the corneal disorder models, the corneal damage score was evaluated in accordance with the method of Murakami et al. (Journal of the eye 21 (1): 87-90 (2004)), and the improvement ratio of a corneal damage after instillation was obtained.
Male SD rats were systemically anesthetized by an administration of Nembutal. Subsequently the exorbital lacrimal gland of each rat was removed and a corneal damage was induced over a period of 2 months.
Then, 4′-[[4-methyl-6-(1-methylbenzimidazol-2-yl)-2-n-propylbenzimidazol-1-yl]methyl]-1,1′-biphenyl-2-carboxylic acid (hereinafter referred to as “Compound A”), 2-n-butyl-4-spirocyclopentane-1-[[2′-(1H-tetrazol-5-yl)-1,1′-biphenyl-4-yl]methyl]-2-imidazolin-5-one (hereinafter referred to as “Compound B”), 2-butyl-4-chloro-5-hydroxymethyl-1-[[2′-(1H-tetrazol-5-yl)-1,1′-biphenyl-4-yl]methyl]imidazole monopotassium salt (hereinafter referred to as “Compound C”), 2-ethoxy-1-[[2′-(1H-tetrazol-5-yl)-1,1′-biphenyl-4-yl]methyl]-1H-benzimidazol-7-carboxylic acid (hereinafter referred to as “Compound D”) […] N-[[2′-(1H-tetrazol-5-yl)-1,1′-biphenyl-4-yl]methyl]-N-valeryl-L-valine (hereinafter referred to as “Compound E”), or 4-(1-hydroxy-1-methylethyl)-2-n-propyl-1-[[2′-(1H-tetrazol-5-yl)-1,1′-biphenyl-4-yl]methyl]imidazol-5-carboxylic acid monohydrate (hereinafter referred to as “Compound F”) was administered to the rats as follows.
A physiological saline solution containing Compound A (0.005%) was instilled into both eyes 6 times a day for 14 days (one group consisting of 4 animals, 8 eyes).
A physiological saline solution containing Compound B (0.04%) was instilled into both eyes 6 times a day for 14 days (one group consisting of 4 animals, 8 eyes).
A physiological saline solution containing Compound C (0.5%) was instilled into both eyes 6 times a day for 14 days (one group consisting of 3 animals, 6 eyes).
A phosphate-buffered saline solution containing Compound D (0.004%) was instilled into both eyes 6 times a day for 14 days (one group consisting of 4 animals, 8 eyes).
A phosphate-buffered saline solution containing Compound E (0.004%) was instilled into both eyes 6 times a day for 14 days (one group consisting of 4 animals, 8 eyes).
A phosphate-buffered saline solution containing Compound F (0.004%) was instilled into both eyes 6 times a day for 14 days (one group consisting of 4 animals, 8 eyes).
In a control group, physiological saline or phosphate-buffered saline was instilled into both eyes 6 times a day for 14 days (one group consisting of 4 animals, 8 eyes).
Fourteen days after the start of instillation, the damaged parts of the cornea were stained with fluorescein. For each of the upper, middle and lower parts of the cornea, the degree of fluorescein staining was evaluated by scoring according to the criteria shown below and the improvement ratio of corneal damage was calculated from the mean value of the total scores for each of the above-mentioned parts. Also for normal eyes, the mean value of the total scores for each of the above-mentioned parts was obtained.
0: No punctate staining 1: Scattered staining (punctate staining being separated) 2: Moderate staining (a part of punctate staining being adjacent) 3: Heavy staining (punctate staining being barely separated)
Incidentally, the mean value of the scores is a mean of those of 8 cases or 6 cases, respectively.
Improvement ratio (%)={(control)−(the present compound)}/damage degree×100 Damage degree=(control)−(normal eye)

[1] = 0.004% in phosphate-buffered saline, vs phosphate-buffered saline control, Table 2
[2] = 0.004% in phosphate-buffered saline, Table 2 (normal eye 2.5, control 4.6)

**Q.** How did the “Improvement ratio (%)” value (0.005% in physiological saline, vs physiological saline control, Table 1) turn out when `CCCc1nc2c(C)cc(-c3nc4ccccc4n3C)cc2n1Cc1ccc(-c2ccccc2C(=O)O)cc1` [Compound A, 4′-[[4-methyl-6-(1-methylbenzimidazol-2-yl)-2-n-propylbenzimidazol-1-yl]methyl]-1,1′-biphenyl-2-carboxylic acid] was run?
**A.** 62.5%

**Q.** What about the “Mean value of scores” value (0.005% in physiological saline, Table 1 (normal eye 3.3, control 4.9)) of the same molecule?
**A.** 3.9

**Q.** `CCCCC1=NC2(CCCC2)C(=O)N1Cc1ccc(-c2ccccc2-c2nnn[nH]2)cc1` [Compound B, 2-n-butyl-4-spirocyclopentane-1-[[2′-(1H-tetrazol-5-yl)-1,1′-biphenyl-4-yl]methyl]-2-imidazolin-5-one] was tested. Which “Improvement ratio (%)” value (0.04% in physiological saline, vs physiological saline control, Table 1) did it give?
**A.** 62.5%

**Q.** What about the “Mean value of scores” value (0.04% in physiological saline, Table 1 (normal eye 3.3, control 4.9)) of the same molecule?
**A.** 3.9

**Q.** `CCCCc1nc(Cl)c(CO)n1Cc1ccc(-c2ccccc2-c2nnn[nH]2)cc1.[K]` [Compound C, 2-butyl-4-chloro-5-hydroxymethyl-1-[[2′-(1H-tetrazol-5-yl)-1,1′-biphenyl-4-yl]methyl]imidazole monopotassium salt] was tested. Which “Improvement ratio (%)” value (0.5% in physiological saline, vs physiological saline control, Table 1) did it give?
**A.** 87.5%

**Q.** And the “Mean value of scores” value (0.5% in physiological saline, Table 1 (normal eye 3.3, control 4.9))?
**A.** 3.5

**Q.** `CCOc1nc2cccc(C(=O)O)c2n1Cc1ccc(-c2ccccc2-c2nnn[nH]2)cc1` [Compound D, 2-ethoxy-1-[[2′-(1H-tetrazol-5-yl)-1,1′-biphenyl-4-yl]methyl]-1H-benzimidazol-7-carboxylic acid] was tested. Which “Improvement ratio (%)” value [1] did it give?
**A.** 47.6%

**Q.** And the “Mean value of scores” value [2]?
**A.** 3.6

**Q.** With `CCCCC(=O)N(Cc1ccc(-c2ccccc2-c2nnn[nH]2)cc1)[C@H](C(=O)O)C(C)C` [Compound E, N-[[2′-(1H-tetrazol-5-yl)-1,1′-biphenyl-4-yl]methyl]-N-valeryl-L-valine] as the molecule, how does the “Improvement ratio (%)” value [1] read?
**A.** 33.3%

**Q.** What about the “Mean value of scores” value [2] of the same molecule?
**A.** 3.9

**Q.** What does the source list for `CCCc1nc(C(C)(C)O)c(C(=O)O)n1Cc1ccc(-c2ccccc2-c2nnn[nH]2)cc1.O` [Compound F, 4-(1-hydroxy-1-methylethyl)-2-n-propyl-1-[[2′-(1H-tetrazol-5-yl)-1,1′-biphenyl-4-yl]methyl]imidazol-5-carboxylic acid monohydrate]?
**A.** Improvement ratio (%) (0.004% in phosphate-buffered saline, vs phosphate-buffered saline control, Table 3): 65.9%; Mean value of scores (0.004% in phosphate-buffered saline, Table 3 (normal eye 2.2, control 6.3)): 3.6
